Experimental findings from US9474790B2, “Stable, protracted GLP-1/glucagon receptor co-agonists for medical use” (Novo Nordisk A/S, priority 2013, dated 2016) are described below.

The target in this assay is T1, human GLP-1 receptor (Homo sapiens, UniProt P43220).
T1 construct: expressed in transfected cells; host or cells: BHK cells (parent BHKTS13), clone FCW467-12A/KZ10-1, with CRE luciferase
Description: GLP-1 receptor binding, 125I-GLP-1 displacement SPA on isolated membranes. The settings on record: displacement of 125I-GLP-1 from membranes; read-out: IC50 GLP-1R. In a few lines:
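SPA displacement of 125I-GLP-1(7-36)NH2 from membranes of BHK cells expressing human GLP-1 receptor, with WGA beads, in 50 mM HEPES, 5 mM EGTA, 5 mM MgCl2, 0.005% Tween 20, pH 7.4. Incubated 2 h at 30°C; IC50 by non-linear regression, run at ≤0.001% or 2.0% final serum albumin.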

SMILES strings stand for the structures. Numbered stars: 1 amine (or outer) side, 2 acyl side, 3 side chain; on linkers, the order of the positions; unused ones are H or OH. Square brackets hold non-standard residues; d marks the D form. Side chains are listed from the residue outwards. Peptide text beside a SMILES is read from it. * marks the point of attachment. C18 diacid = O=C(O)CCCCCCCCCCCCCCCCC(=O)*; γGlu = O=C(O)[C@H](CCC(=O)[*:2])N[*:1]; Ac4c = NC1(C(=O)O)CCC1; AEEA = NCCOCCOCC(=O)O; Aib = CC(C)(N)C(=O)O

T1 sequence (P43220 24-463): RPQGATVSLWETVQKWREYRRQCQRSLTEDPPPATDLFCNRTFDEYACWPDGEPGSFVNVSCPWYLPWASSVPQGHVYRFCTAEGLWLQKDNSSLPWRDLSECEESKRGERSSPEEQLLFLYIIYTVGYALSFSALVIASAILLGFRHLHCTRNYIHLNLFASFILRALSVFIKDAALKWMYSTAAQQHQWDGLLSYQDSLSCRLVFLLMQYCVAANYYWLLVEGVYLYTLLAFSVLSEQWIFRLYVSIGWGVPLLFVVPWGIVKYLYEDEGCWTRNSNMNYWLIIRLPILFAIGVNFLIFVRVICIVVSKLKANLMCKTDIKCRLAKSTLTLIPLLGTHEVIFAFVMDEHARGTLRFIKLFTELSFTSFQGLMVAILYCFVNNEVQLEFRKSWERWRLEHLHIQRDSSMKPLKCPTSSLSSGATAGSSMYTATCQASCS

With `CC(C)C[C@H](NC(=O)[C@H](CC(=O)O)NC(=O)[C@H](CC(C)C)NC(=O)[C@H](Cc1ccc(O)cc1)NC(=O)[C@H](CCCCN)NC(=O)[C@H](CO)NC(=O)[C@H](CC(C)C)NC(=O)[C@H](CC(=O)O)NC(=O)[C@H](CO)NC(=O)[C@@H](NC(=O)[C@H](Cc1ccccc1)NC(=O)[C@@H](NC(=O)CNC(=O)[C@H](CCC(N)=O)NC(=O)C1(NC(=O)[C@@H](N)Cc2c[nH]cn2)CCC1)[C@@H](C)O)[C@@H](C)O)C(=O)N[C@@H](CCCNC(=N)N)C(=O)N[C@@H](CCCNC(=N)N)C(=O)N[C@@H](C)C(=O)N[C@@H](CCCNC(=N)N)C(=O)N[C@@H](CCC(=O)O)C(=O)N[C@@H](Cc1ccccc1)C(=O)N[C@H](C(=O)N[C@@H](CCC(N)=O)C(=O)N[C@@H](Cc1c[nH]c2ccccc12)C(=O)N[C@@H](CC(C)C)C(=O)N[C@@H](CC(C)C)C(=O)N[C@@H](CCCCNC(=O)CC[C@H](NC(=O)CC[C@H](NC(=O)COCCOCCNC(=O)COCCOCCNC(=O)CC[C@H](NC(=O)CC[C@H](NC(=O)CCCCCCCCCCCCCCCCC(=O)O)C(=O)O)C(=O)O)C(=O)O)C(=O)O)C(=O)N[C@H](C(N)=O)[C@@H](C)O)C(C)C` [Example 49, N^ε28-[(4S)-4-carboxy-4-[[(4S)-4-carboxy-4-[[2-[2-[2-[[2-[2-[2-[[(4S)-4-carboxy-4-[[(4S)-4-carboxy-4-(17-carboxyheptadecanoylamino)butanoyl]amino]butanoyl]amino]ethoxy]ethoxy]acetyl]amino]ethoxy]ethoxy]acetyl]amino]butanoyl]amino]butanoyl]-[Acb2,Leu10,Leu16,Arg20,Glu21,Leu27,Lys28]-Glucagon amide] (H-H[Ac4c]QGTFTSDLSKYLDLRRAREFVQWLLK([γGlu-γGlu-AEEA-AEEA-γGlu-γGlu-C18 diacid])T-NH2; N-terminus assumed), the IC50 is 0.4 nM.

Turning to `CC(C)C[C@H](NC(=O)[C@H](Cc1c[nH]c2ccccc12)NC(=O)[C@H](CCC(N)=O)NC(=O)[C@@H](NC(=O)[C@H](Cc1ccccc1)NC(=O)[C@H](CCC(=O)O)NC(=O)[C@H](CCCNC(=N)N)NC(=O)[C@H](C)NC(=O)[C@H](CCCNC(=N)N)NC(=O)[C@H](CCCNC(=N)N)NC(=O)C(C)(C)NC(=O)[C@H](CC(=O)O)NC(=O)[C@H](CC(C)C)NC(=O)[C@H](Cc1ccc(O)cc1)NC(=O)[C@H](CCCCN)NC(=O)[C@H](CO)NC(=O)[C@H](CC(C)C)NC(=O)[C@H](CC(=O)O)NC(=O)[C@H](CO)NC(=O)[C@@H](NC(=O)[C@H](Cc1ccccc1)NC(=O)[C@@H](NC(=O)CNC(=O)[C@H](CCC(N)=O)NC(=O)C(C)(C)NC(=O)[C@@H](N)Cc1c[nH]cn1)[C@@H](C)O)[C@@H](C)O)C(C)C)C(=O)N[C@@H](CC(C)C)C(=O)N[C@@H](CCCCNC(=O)CC[C@H](NC(=O)CC[C@H](NC(=O)COCCOCCNC(=O)COCCOCCNC(=O)CC[C@H](NC(=O)CCCCCCCCCCCCCCCCC(=O)O)C(=O)O)C(=O)O)C(=O)O)C(=O)N[C@H](C(N)=O)[C@@H](C)O` [Example 51, N^ε28-[(4S)-4-carboxy-4-[[(4S)-4-carboxy-4-[[2-[2-[2-[[2-[2-[2-[[(4S)-4-carboxy-4-(17-carboxyheptadecanoylamino)butanoyl]amino]ethoxy]ethoxy]acetyl]amino]ethoxy]ethoxy]acetyl]amino]butanoyl]amino]butanoyl]-[Aib2,Leu10,Aib16,Arg20,Glu21,Leu27,Lys28]-Glucagon amide] (H-H[Aib]QGTFTSDLSKYLD[Aib]RRAREFVQWLLK([γGlu-γGlu-AEEA-AEEA-γGlu-C18 diacid])T-NH2; N-terminus assumed), the 50% inhibitory concentration (IC50) was found to be 0.7 nM.

With `CC(C)C[C@H](NC(=O)[C@H](Cc1ccc(O)cc1)NC(=O)[C@H](CCCCN)NC(=O)[C@H](CO)NC(=O)[C@H](CC(C)C)NC(=O)[C@H](CC(=O)O)NC(=O)[C@H](CO)NC(=O)[C@@H](NC(=O)[C@H](Cc1ccccc1)NC(=O)[C@@H](NC(=O)CNC(=O)[C@H](CCC(N)=O)NC(=O)C(C)(C)NC(=O)[C@@H](N)Cc1c[nH]cn1)[C@@H](C)O)[C@@H](C)O)C(=O)N[C@@H](CCC(=O)O)C(=O)N[C@@H](CO)C(=O)N[C@@H](CCCCN)C(=O)N[C@@H](CCCNC(=N)N)C(=O)N[C@@H](C)C(=O)N[C@@H](CCCNC(=N)N)C(=O)N[C@@H](CCC(=O)O)C(=O)N[C@@H](Cc1ccccc1)C(=O)N[C@H](C(=O)N[C@@H](CCC(N)=O)C(=O)N[C@@H](Cc1c[nH]c2ccccc12)C(=O)N[C@@H](CC(C)C)C(=O)N[C@@H](CC(C)C)C(=O)N[C@@H](CCCCNC(=O)CC[C@H](NC(=O)CC[C@H](NC(=O)[C@H](CO)NC(=O)[C@H](CCC(=O)O)NC(=O)[C@H](CO)NC(=O)CC[C@H](NC(=O)CC[C@H](NC(=O)CCCCCCCCCCCCCCCCC(=O)O)C(=O)O)C(=O)O)C(=O)O)C(=O)O)C(=O)N[C@H](C(N)=O)[C@@H](C)O)C(C)C` [Example 52] (H-H[Aib]QGTFTSDLSKYLESKRAREFVQWLLK([γGlu-γGlu-Ser-Glu-Ser-γGlu-γGlu-C18 diacid])T-NH2; N-terminus assumed), the IC50 amounted to 0.2 nM.

`CC(C)C[C@H](NC(=O)[C@H](Cc1ccc(O)cc1)NC(=O)[C@H](CCCCN)NC(=O)[C@H](CO)NC(=O)[C@H](CC(C)C)NC(=O)[C@H](CC(=O)O)NC(=O)[C@H](CO)NC(=O)[C@@H](NC(=O)[C@H](Cc1ccccc1)NC(=O)[C@@H](NC(=O)CNC(=O)[C@H](CCC(N)=O)NC(=O)C(C)(C)NC(=O)[C@@H](N)Cc1c[nH]cn1)[C@@H](C)O)[C@@H](C)O)C(=O)N[C@@H](CCC(=O)O)C(=O)N[C@@H](CO)C(=O)N[C@@H](CCCCN)C(=O)N[C@@H](CCCNC(=N)N)C(=O)N[C@@H](C)C(=O)N[C@@H](CCCNC(=N)N)C(=O)N[C@@H](CCC(=O)O)C(=O)N[C@@H](Cc1ccccc1)C(=O)N[C@H](C(=O)N[C@@H](CCC(N)=O)C(=O)N[C@@H](Cc1c[nH]c2ccccc12)C(=O)N[C@@H](CC(C)C)C(=O)N[C@@H](CC(C)C)C(=O)N[C@@H](CCCCNC(=O)CC[C@H](NC(=O)CC[C@H](NC(=O)[C@H](CO)NC(=O)[C@H](CCC(=O)O)NC(=O)[C@H](CO)NC(=O)CC[C@H](NC(=O)CC[C@H](NC(=O)CCCCCCCCCCCCCCCCC(=O)O)C(=O)O)C(=O)O)C(=O)O)C(=O)O)C(=O)N[C@H](C(N)=O)[C@@H](C)O)C(C)C` [Example 54, N^ε28-[(4S)-4-carboxy-4-[[(4S)-4-carboxy-4-[[(2S)-2-[[(2S)-4-carboxy-2-[[(2S)-2-[[(4S)-4-carboxy-4-[[(4S)-4-carboxy-4-(17-carboxyheptadecanoylamino)butanoyl]amino]butanoyl]amino]-3-hydroxypropanoyl]amino]butanoyl]amino]-3-hydroxypropanoyl]amino]butanoyl]amino]butanoyl]-[Aib2,Leu10,Glu15,Lys17,Arg20,Glu21,Leu27,Lys28]-Glucagon amide] (H-H[Aib]QGTFTSDLSKYLESKRAREFVQWLLK([γGlu-γGlu-Ser-Glu-Ser-γGlu-γGlu-C18 diacid])T-NH2; N-terminus assumed): the IC50 came to 0.2 nM.

With `CC(C)C[C@H](NC(=O)[C@H](CC(=O)O)NC(=O)[C@H](CC(C)C)NC(=O)[C@H](Cc1ccc(O)cc1)NC(=O)[C@H](CCCCN)NC(=O)[C@H](CO)NC(=O)[C@H](CC(C)C)NC(=O)[C@H](CC(=O)O)NC(=O)[C@H](CO)NC(=O)[C@@H](NC(=O)[C@H](Cc1ccccc1)NC(=O)[C@@H](NC(=O)CNC(=O)[C@H](CCC(N)=O)NC(=O)C(C)(C)NC(=O)[C@@H](N)Cc1c[nH]cn1)[C@@H](C)O)[C@@H](C)O)C(=O)N[C@@H](CCCNC(=N)N)C(=O)N[C@@H](CCCNC(=N)N)C(=O)N[C@@H](C)C(=O)N[C@@H](CCCNC(=N)N)C(=O)N[C@@H](CC(=O)O)C(=O)N[C@@H](Cc1ccccc1)C(=O)N[C@H](C(=O)N[C@@H](CCC(N)=O)C(=O)N[C@@H](Cc1c[nH]c2ccccc12)C(=O)N[C@@H](CC(C)C)C(=O)N[C@@H](CC(C)C)C(=O)N[C@@H](CCCCNC(=O)CNC(=O)[C@H](CO)NC(=O)[C@H](CCC(=O)O)NC(=O)[C@H](CO)NC(=O)CC[C@H](NC(=O)CC[C@H](NC(=O)CCCCCCCCCCCCCCCCC(=O)O)C(=O)O)C(=O)O)C(=O)N[C@H](C(N)=O)[C@@H](C)O)C(C)C` [Example 55, N^ε28-[2-[[(2S)-2-[[(2S)-4-carboxy-2-[[(2S)-2-[[(4S)-4-carboxy-4-[[(4S)-4-carboxy-4-(17-carboxyheptadecanoylamino)butanoyl]amino]butanoyl]amino]-3-hydroxypropanoyl]amino]butanoyl]amino]-3-hydroxypropanoyl]amino]acetyl]-[Aib2,Leu10,Leu16,Arg20,Leu27,Lys28]-Glucagon amide] (H-H[Aib]QGTFTSDLSKYLDLRRARDFVQWLLK([Gly-Ser-Glu-Ser-γGlu-γGlu-C18 diacid])T-NH2; N-terminus assumed), the IC50 is 1.1 nM.

A word on the IC50: it is the concentration needed to halve the response being measured.
